Results taken from patent publication US20240209053A1 (Protagonist Therapeutics, Inc., priority 2021, published 2024).

Tests used:
ferroportin = molecular target: T1, ferroportin (Homo sapiens, UniProt Q9NP59); assay: T47D cell-based ferroportin internalization assay in presence of 0.5% mouse serum albumin (MSA); settings: T47D cells
T1 sequence (Q9NP59 1-571): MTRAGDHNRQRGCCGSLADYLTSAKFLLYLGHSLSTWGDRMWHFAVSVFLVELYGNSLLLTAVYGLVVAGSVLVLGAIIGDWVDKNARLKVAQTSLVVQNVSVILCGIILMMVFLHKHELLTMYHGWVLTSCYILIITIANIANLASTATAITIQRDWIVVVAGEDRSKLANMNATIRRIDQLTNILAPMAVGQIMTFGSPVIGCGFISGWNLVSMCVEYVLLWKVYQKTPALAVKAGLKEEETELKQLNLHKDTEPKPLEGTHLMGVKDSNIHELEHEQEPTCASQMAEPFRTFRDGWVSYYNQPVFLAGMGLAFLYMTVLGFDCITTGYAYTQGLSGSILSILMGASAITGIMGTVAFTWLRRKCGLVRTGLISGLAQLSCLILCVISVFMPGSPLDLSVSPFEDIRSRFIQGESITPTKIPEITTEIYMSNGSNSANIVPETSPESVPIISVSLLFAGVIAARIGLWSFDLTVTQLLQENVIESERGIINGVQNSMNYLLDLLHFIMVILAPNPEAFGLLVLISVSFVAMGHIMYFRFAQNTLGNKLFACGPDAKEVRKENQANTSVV
How it was run: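 T47D cells exposed 1 hr to peptide series (10 points from ~5 μM) premixed 30 min at room temperature with 0.5% mouse serum albumin, then 200 nM AF647-labelled ferroportin-binding peptide for 2 hr. Flow cytometry MFI of live singlets; IC50 by 4-parameter fit.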

[1] = molecular target: T2, human ferroportin (SLC40A1) (Homo sapiens, UniProt Q9NP59); assay: FPN activity assay: internalization/degradation of ferroportin-GFP in stably transfected HEK293 cells (decrease in GFP fluorescence); type: cell-based; settings: compound incubated at least 18 hours
T2 sequence (Q9NP59 1-571): T1 sequence (Q9NP59 1-571)
How it was run: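 HEK293 cells stably expressing human ferroportin C-terminally fused to GFP were exposed to peptides for at least 18 h, at most 24 h. Internalization/degradation read as loss of GFP fluorescence; EC50 derived. Retro-inverse mini-hepcidin peptides used as control standards.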

[2] = molecular target: T3, ferroportin fused to green fluorescent protein (Mus musculus, UniProt Q9JHI9); settings: read-out: EC50 (50% of maximal loss of fluorescence); cells incubated 24 hours; reference preparations of Hep25; cited from earlier work
T3 sequence (Q9JHI9 1-570): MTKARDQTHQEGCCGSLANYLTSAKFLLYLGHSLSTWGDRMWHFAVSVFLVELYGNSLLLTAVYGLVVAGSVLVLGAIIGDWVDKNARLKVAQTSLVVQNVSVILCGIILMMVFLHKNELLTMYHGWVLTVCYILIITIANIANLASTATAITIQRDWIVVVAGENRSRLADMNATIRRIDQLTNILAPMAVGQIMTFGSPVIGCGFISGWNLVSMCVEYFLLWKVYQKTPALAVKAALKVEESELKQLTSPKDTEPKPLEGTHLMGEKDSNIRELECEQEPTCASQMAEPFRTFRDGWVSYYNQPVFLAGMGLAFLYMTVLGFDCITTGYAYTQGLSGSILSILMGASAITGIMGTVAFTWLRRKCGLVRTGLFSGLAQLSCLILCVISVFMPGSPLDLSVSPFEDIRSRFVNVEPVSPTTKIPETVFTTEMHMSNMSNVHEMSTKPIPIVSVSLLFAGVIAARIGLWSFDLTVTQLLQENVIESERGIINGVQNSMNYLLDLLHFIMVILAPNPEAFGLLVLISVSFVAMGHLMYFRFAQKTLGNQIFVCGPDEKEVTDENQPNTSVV

[3] = molecular target: human ferroportin (SLC40A1) fused in frame with GFP, stably expressed on HEK293 cells (human) (UniProt Q9NP59); assay: cell-based or functional assay

Molecule | IC50 (ferroportin) [nM] | IC50 [1] [nM] | other results
CCCCCCCCCCCCCCCC(=O)NCCCCCC(=O)NCCCC[C@H](NC(=O)C[C@H](Cc1ccccc1)NC(=O)[C@H]1CCCC=CCC[C@@H](NC(=O)CC(C)C)C(=O)N[C@@H]([C@@H](C)O)C(=O)N[C@@H](Cc2c[nH]cn2)C(=O)N[C@@H](C(c2ccccc2)c2ccccc2)C(=O)N2CCC[C@H]2C(=O)N[C@@H](C)C(=O)N[C@@H]([C@@H](C)CC)C(=O)N1)C(=O)N[C@H](CCCCN)C(N)=O [Compd 71] | 100 to 500 | 100 to 500 | –
CCCCCCCCCCCCCCCC(=O)NCCCCCC(=O)NCCCC[C@H](NC(=O)C[C@H](Cc1ccccc1)NC(=O)[C@H]1CCC=CCC[C@@H](NC(=O)CC(C)C)C(=O)N[C@@H]([C@@H](C)O)C(=O)N[C@@H](Cc2c[nH]cn2)C(=O)N[C@@H](C(c2ccccc2)c2ccccc2)C(=O)N2CCC[C@H]2C(=O)N[C@@H](C)C(=O)N[C@@H]([C@@H](C)CC)C(=O)N1)C(=O)N[C@H](CCCCN)C(N)=O [Compd 72] | 100 to 500 | 10 to 100 | –
CCCCCCCCCCCCCCCC(=O)NCCCCCC(=O)NCCCC[C@H](NC(=O)C[C@H](Cc1ccccc1)NC(=O)[C@H]1CCCC=CCCC[C@@H](NC(=O)CC(C)C)C(=O)N[C@@H]([C@@H](C)O)C(=O)N[C@@H](Cc2c[nH]cn2)C(=O)N[C@@H](C(c2ccccc2)c2ccccc2)C(=O)N2CCC[C@H]2C(=O)N[C@@H](C)C(=O)N[C@@H]([C@@H](C)CC)C(=O)N1)C(=O)N[C@H](CCCCN)C(N)=O [Compd 73] | > 500 | 100 to 500 | –
CCCCCCCCCCCCCCCC(=O)NCCCCCC(=O)NCCCC[C@H](NC(=O)C[C@H](Cc1ccccc1)NC(=O)[C@H]1CCC=CCCC[C@@H](NC(=O)CC(C)C)C(=O)N[C@@H]([C@@H](C)O)C(=O)N[C@@H](Cc2c[nH]cn2)C(=O)N[C@@H](C(c2ccccc2)c2ccccc2)C(=O)N2CCC[C@H]2C(=O)N[C@@H](C)C(=O)N[C@@H]([C@@H](C)CC)C(=O)N1)C(=O)N[C@H](CCCCN)C(N)=O [Compd 74] | > 500 | 100 to 500 | –
CCCCCCCCCCCCCCCC(=O)NCCCCCC(=O)NCCCC[C@H](NC(=O)C[C@H](Cc1ccccc1)NC(=O)[C@H]1CCCC=CCC[C@H](NC(=O)CC(C)C)C(=O)N[C@@H]([C@@H](C)O)C(=O)N[C@@H](Cc2c[nH]cn2)C(=O)N[C@@H](C(c2ccccc2)c2ccccc2)C(=O)N2CCC[C@H]2C(=O)N[C@@H](C)C(=O)N[C@@H]([C@@H](C)CC)C(=O)N1)C(=O)N[C@H](CCCCN)C(N)=O [Compd 75] | 10 to 100 | 10 to 100 | –
CCCCCCCCCCCCCCCC(=O)NCCCCCC(=O)NCCCC[C@H](NC(=O)C[C@H](Cc1ccccc1)NC(=O)[C@H]1CCC=CCC[C@H](NC(=O)CC(C)C)C(=O)N[C@@H]([C@@H](C)O)C(=O)N[C@@H](Cc2c[nH]cn2)C(=O)N[C@@H](C(c2ccccc2)c2ccccc2)C(=O)N2CCC[C@H]2C(=O)N[C@@H](C)C(=O)N[C@@H]([C@@H](C)CC)C(=O)N1)C(=O)N[C@H](CCCCN)C(N)=O [Compd 76] | 10 to 100 | 10 to 100 | –
CCCCCCCCCCCCCCCC(=O)NCCCCCC(=O)NCCCC[C@H](NC(=O)C[C@H](Cc1ccccc1)NC(=O)[C@H]1CCCC=CCCC[C@H](NC(=O)CC(C)C)C(=O)N[C@@H]([C@@H](C)O)C(=O)N[C@@H](Cc2c[nH]cn2)C(=O)N[C@@H](C(c2ccccc2)c2ccccc2)C(=O)N2CCC[C@H]2C(=O)N[C@@H](C)C(=O)N[C@@H]([C@@H](C)CC)C(=O)N1)C(=O)N[C@H](CCCCN)C(N)=O [Compd 77] | 1 to 10 | 1 to 10 | –
CCCCCCCCCCCCCCCC(=O)NCCCCCC(=O)NCCCC[C@H](NC(=O)C[C@H](Cc1ccccc1)NC(=O)[C@H]1CCC=CCCC[C@H](NC(=O)CC(C)C)C(=O)N[C@@H]([C@@H](C)O)C(=O)N[C@@H](Cc2c[nH]cn2)C(=O)N[C@@H](C(c2ccccc2)c2ccccc2)C(=O)N2CCC[C@H]2C(=O)N[C@@H](C)C(=O)N[C@@H]([C@@H](C)CC)C(=O)N1)C(=O)N[C@H](CCCCN)C(N)=O [Compd 78] | 100 to 500 | 10 to 100 | –
CC[C@H](C)[C@@H]1NC(=O)[C@@H](NC(=O)[C@@H](NC(=O)[C@@H]2CCCN2C(=O)[C@H](Cc2ccccc2)NC(=O)[C@H](Cc2c[nH]cn2)NC(=O)[C@@H](NC(=O)[C@@H](N)CC(=O)O)[C@@H](C)O)[C@@H](C)CC)CSSC[C@@H](C(=O)N[C@@H](CCCCN)C(=O)N[C@H](C(=O)O)[C@@H](C)O)NC(=O)[C@@H]2CSSC[C@@H]3NC(=O)[C@@H]4CSSC[C@H](NC(=O)[C@H](Cc5ccccc5)NC1=O)C(=O)N[C@@H](CSSC[C@H](NC(=O)[C@H](CCCCN)NC(=O)[C@H](CO)NC(=O)[C@H](CCCNC(=N)N)NC(=O)[C@H](Cc1c[nH]cn1)NC3=O)C(=O)NCC(=O)N[C@@H](CCSC)C(=O)N2)C(=O)NCC(=O)N4 [Hepcidin, Hy-DTHFPIC(1)IFC(2)C(3)GC(2)C(4)HRSKC(3)GMC(4)C(1)KT-OH] | – | – | EC50 [2]: 5 to 15 nM
CCCCCCCCCCCCCCCC(=O)NCCCCCC(=O)NCCCC[C@H](NC(=O)C[C@H](Cc1ccccc1)NC(=O)[C@@H]1CCC=CCC[C@H](NC(=O)CC(C)C)C(=O)N[C@@H]([C@@H](C)O)C(=O)N[C@@H](Cc2c[nH]cn2)C(=O)N[C@@H](C(c2ccccc2)c2ccccc2)C(=O)N2CCC[C@H]2C(=O)N[C@@H](C)C(=O)N[C@@H]([C@@H](C)CC)C(=O)N1)C(=O)N[C@H](CCCCN)C(N)=O [Peptide ID #16, Isovaleric Acid-[Ala(2)]-T-H-[Dpa]-P-A-I-[Ala(2)]-[bhPhe]-[Lys(Ahx_Palm)]-[(D)Lys]-NH2] | 10 to 100 | 1 to 10 | –
Hepcidin (ligand) | – | – | Potency EC50 [3]: 34 nM
Mini-Hepcidin 1-9 (peptide) | – | – | Potency EC50 [3]: 712 nM
RI-Mini Hepcidin (peptide) | – | – | Potency EC50 (nM) [3]: > 10000 nM
